Source: ChEMBL document CHEMBL1142268, “Histone deacetylase inhibitors: from bench to clinic” (J Med Chem, 2008)

Tests used:
Histone deacetylase [1] = assay: Inhibition of HDAC from human HeLa cells; type: cell-based
SQ20B = assay: Inhibition of human SQ20B cells; type: functional, cell-based
Histone deacetylase 1 [2] = target: T1, Histone deacetylase 1 (Homo sapiens, UniProt Q13547)
Description: Inhibition of human HDAC1

Histone deacetylase 1 [3] = target: T1, Histone deacetylase 1; assay: Inhibition of HDAC1 from human HeLa cells; type: cell-based
MM96L = assay: Inhibition of human MM96L cells; type: functional, cell-based
[4] = Growth inhibition of human neonatal foreskin fibroblasts cells; type: functional, cell-based; details: Fibroblast
[5] = Inhibition of mouse SC9 cells; type: functional, cell-based
MKN-45 = assay: Antiproliferative activity against human MKN45 cells; type: functional, cell-based
HCT-116 = assay: Inhibition of human HCT116 cells; type: functional, cell-based
HT-1080 = assay: Inhibition of human HT1080 cells; type: functional, cell-based
Histone deacetylase [6] = assay: Inhibition of HDAC from human K562 cells; type: cell-based
Histone deacetylase [7] = assay: Inhibition of HDAC in human CEM cells; type: cell-based; details: ccrf-cem; read-out: IC50
CCRF-CEM = assay: Inhibition of human CEM cells assessed as viability; type: functional, cell-based
Histone deacetylase [8] = assay: Inhibition of human liver HDAC

T1 sequence (Q13547 whole entry): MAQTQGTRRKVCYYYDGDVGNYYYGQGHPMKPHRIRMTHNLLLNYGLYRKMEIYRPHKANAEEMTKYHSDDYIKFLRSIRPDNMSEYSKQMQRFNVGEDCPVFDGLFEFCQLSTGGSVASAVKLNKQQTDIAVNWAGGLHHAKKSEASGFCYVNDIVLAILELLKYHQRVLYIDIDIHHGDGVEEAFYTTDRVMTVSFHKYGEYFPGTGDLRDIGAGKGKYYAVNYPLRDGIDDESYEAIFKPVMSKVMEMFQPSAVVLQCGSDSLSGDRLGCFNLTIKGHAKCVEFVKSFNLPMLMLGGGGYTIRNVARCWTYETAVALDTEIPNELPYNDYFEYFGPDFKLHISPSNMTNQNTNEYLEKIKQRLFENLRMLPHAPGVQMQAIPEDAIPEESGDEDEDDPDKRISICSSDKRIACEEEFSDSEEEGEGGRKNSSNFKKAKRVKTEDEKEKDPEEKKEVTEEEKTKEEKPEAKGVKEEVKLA

CN(C)c1ccc(CNC(=O)NCCCCC(=O)NO)cc1
IC50 (Histone deacetylase [1]): 800 nM
IC50 (SQ20B): 50000 nM

CC(=O)CCCCC[C@H](Nc1cncs1)C(=O)Nc1cccc(-c2ccccc2)c1
IC50 (Histone deacetylase 1 [2]): 55 nM
IC50 (Histone deacetylase 1 [3]): 720 nM

CC(=O)CCCCC[C@H](NC(=O)CCN1CCCCC1)C(=O)NCCc1c(-c2ccccc2)[nH]c2ccccc12
IC50 (Histone deacetylase 1 [2]): 190 nM
IC50 (Histone deacetylase 1 [3]): < 390 nM

O=C(/C=C/c1ccccc1)N[C@@H](CSCCCC(=O)NO)C(=O)NCc1ccccc1
IC50 (MM96L): 200 nM
IC50 [4]: 800 nM

O=C(CCCCCCN(CCCc1ccccc1)CCc1ccccc1)NO
IC50 [5]: 934000 nM
IC50 (Histone deacetylase 1 [2]): 159 nM

O=C(NO)c1ccc(-c2ccn(CCNCc3ccc(-n4ccnc4)cc3)n2)s1
IC50 (MKN-45): 560 nM

O=C(CN(CCCCCCC(=O)Nc1ccccc1)CC(=O)Nc1ccccc1)NO
IC50 [5]: 317000 nM
IC50 (Histone deacetylase 1 [2]): 13 nM

COc1cc(NC/C=C/c2ccc(C(=O)Nc3ccccc3N)cc2)cc(OC)c1OC
IC50 (HCT-116): 100 nM

O=C(CCCCCCC(=O)N1CCN(c2ccc(Cl)cc2)CC1)NO
IC50 [5]: 555000 nM
IC50 (Histone deacetylase 1 [2]): 36.5 nM

COc1ccccc1NC(=O)Cn1ccc(-c2ccc(C(=O)NO)s2)n1
IC50 (MKN-45): 230 nM

COc1ccc2[nH]c(C)c(CN[C@@H](CCCCCC(C)=O)C(=O)Nc3cccc(-c4ccccc4)c3)c2c1
IC50 (Histone deacetylase 1 [2]): 18 nM
IC50 (Histone deacetylase 1 [3]): 230 nM

O=C(CCCCCCc1nc(-c2ccc(-c3ccccc3)cc2)cs1)NO
IC50 (HT-1080): 1320 nM
IC50 (Histone deacetylase [6]): 11 nM

O=C(CCCCCCc1ncc(-c2ccc(Br)cc2)o1)NO
IC50 (HT-1080): 7700 nM
IC50 (Histone deacetylase [6]): 2.7 nM

O=C(NO)c1ccc(-c2ccn(CCOc3ccccc3)n2)s1
IC50 (MKN-45): 1500 nM

O=C(CCCCCCc1nc(-c2ccc(C(F)(F)F)cc2)cs1)NO
IC50 (HT-1080): 2390 nM
IC50 (Histone deacetylase [6]): 42 nM

O=C(CCCCCSc1ccc(NS(=O)(=O)c2ccc(Cl)cc2)cc1)NO
IC50 (Histone deacetylase [7]): 9400 nM
IC50 (CCRF-CEM): > 25000 nM
IC50 (Histone deacetylase [8]): 110 nM

O=C(Cn1ccc(-c2ccc(C(=O)NO)s2)n1)Nc1ccccc1
IC50 (MKN-45): 840 nM

O=C(CCCCCC(=O)N(CC(=O)Nc1ccccc1)CC(=O)Nc1cccc2cccnc12)NO
IC50 [5]: 46000 nM

O=C(CCCSC[C@H](NC(=O)c1ccc(Br)cc1)C(=O)NCc1ccccc1)NO
IC50 (MM96L): 200 nM
IC50 [4]: 830 nM

CN(C)c1ccc(NC(=O)NCCCCCCC(=O)NO)cc1
IC50 (Histone deacetylase [1]): 700 nM
IC50 (SQ20B): 10000 nM

O=C(NO)c1ccc(-c2ccn(CCNCc3ccccc3)n2)s1
IC50 (MKN-45): 1800 nM

CC(=O)CCCCC[C@H](NC1CCCCN1C)C(=O)Nc1cccc(-c2ccccc2)c1 (stereo not given in full)
IC50 (Histone deacetylase 1 [2]): 79 nM
IC50 (Histone deacetylase 1 [3]): 500 nM

O=C(CCCCCC[S+]([O-])c1ccc(Cl)cc1)NO (stereo not given)
IC50 (Histone deacetylase [7]): 1600 nM
IC50 (CCRF-CEM): 12300 nM
IC50 (Histone deacetylase [8]): 380 nM

CC(=O)CCCCC[C@H](NC(=O)C1CCCCN1C)C(=O)NCCc1c(-c2ccccc2)[nH]c2ccccc12 (stereo not given in full)
IC50 (Histone deacetylase 1 [3]): 2500 nM

COc1ccc(-c2cnc(CCCCCCC(=O)NO)o2)cc1
IC50 (HT-1080): 310 nM
IC50 (Histone deacetylase [6]): 2.1 nM

O=C(NO)c1ccc(-c2ccn(CCNCc3ccc(-c4ccccn4)cc3)n2)s1
IC50 (MKN-45): 120 nM

CC(=O)CCCCC[C@H](NC(=O)C1CCCN(C)C1)C(=O)NCCc1c(-c2ccccc2)[nH]c2ccccc12 (stereo not given in full)
IC50 (Histone deacetylase 1 [3]): 2000 nM

O=C(NO)c1ccc(-c2ccn(Cc3ccccc3)n2)s1
IC50 (MKN-45): 4540 nM

Nc1ccccc1NC(=O)/C=C/c1ccc(NCc2ccccc2)nc1
IC50 (HCT-116): 1000 nM

COc1ccc(NCc2ccc(/C=C/C(=O)Nc3ccccc3N)cc2)cc1
IC50 (HCT-116): 12000 nM

O=C(CCCCCC(=O)N(CC(=O)Nc1cccc2cccnc12)CC(=O)Nc1cccc2cccnc12)NO
IC50 [5]: 52000 nM

COc1ccc2[nH]c(C)c(CN[C@@H](CCCCCC(C)=O)C(=O)Nc3nc(-c4ccccc4)cs3)c2c1
IC50 (Histone deacetylase 1 [2]): 25 nM
IC50 (Histone deacetylase 1 [3]): < 390 nM

CN(C)c1ccc(CNC(=O)NCCCCCCC(=O)NO)cc1
IC50 (Histone deacetylase [1]): 1000 nM
IC50 (SQ20B): 50000 nM

O=C(NO)c1ccc(-c2ccn(CCCc3ccccc3)n2)s1
IC50 (MKN-45): 2190 nM

O=C(CCCSC[C@H](NC(=O)c1ccc2ccccc2c1)C(=O)NCc1ccccc1)NO
IC50 (MM96L): 600 nM
IC50 [4]: 1140 nM

COc1ccc(CNc2ccc(C(=O)Nc3ccccc3N)cn2)cc1
IC50 (HCT-116): 500 nM

COc1ccc(CNCCn2ccc(-c3ccc(C(=O)NO)s3)n2)cc1OC
IC50 (MKN-45): 4500 nM

O=C(CCCCC[S+]([O-])c1ccc(Cl)cc1)NO (stereo not given)
IC50 (CCRF-CEM): 2600 nM

O=C(NO)c1ccc(-c2ccn(CCOCc3ccccc3)n2)s1
IC50 (MKN-45): 750 nM

COc1ccc(CNc2ccc(C(=O)Nc3ccccc3N)cc2)cc1OC
IC50 (HCT-116): 600 nM

Nc1ccccc1NC(=O)CCCCCCNC(=O)c1ccc(-c2ccccc2)cc1
IC50 (HCT-116): 7000 nM

Cn1c(CNCCn2ccc(-c3ccc(C(=O)NO)s3)n2)cc2ccccc21
IC50 (MKN-45): 370 nM

CN(C)c1ccc(C(=O)N[C@@H](CSCCCC(=O)NO)C(=O)NCc2ccccc2)cc1
IC50 (MM96L): 140 nM
IC50 [4]: 350 nM

O=C(CCCCCSc1ccccc1)NO
IC50 (Histone deacetylase [7]): 9400 nM
IC50 (CCRF-CEM): > 25000 nM
IC50 (Histone deacetylase [8]): 120 nM

COc1ccc(CNc2ccc(/C=C/C(=O)Nc3ccccc3N)cn2)cc1
IC50 (HCT-116): 3000 nM
